Source: patent US8809372B2, “Pyridine derivatives” (Endo Pharmaceuticals, Inc., priority 2011, dated 2014)

Tests used:
[1] = molecular target: T1, rat CYP17 (rat testicular microsomes) (Rattus norvegicus, UniProt P11715); experiment: CYP17 inhibition assay in rat testicular microsomes; assay type: biochemical
T1 construct: Rat testis tissue was collected and disrupted with 30 strokes of a glass homogenizer; from tissue; host or cells: rat testis (microsomes)
T1 sequence (P11715 1-507): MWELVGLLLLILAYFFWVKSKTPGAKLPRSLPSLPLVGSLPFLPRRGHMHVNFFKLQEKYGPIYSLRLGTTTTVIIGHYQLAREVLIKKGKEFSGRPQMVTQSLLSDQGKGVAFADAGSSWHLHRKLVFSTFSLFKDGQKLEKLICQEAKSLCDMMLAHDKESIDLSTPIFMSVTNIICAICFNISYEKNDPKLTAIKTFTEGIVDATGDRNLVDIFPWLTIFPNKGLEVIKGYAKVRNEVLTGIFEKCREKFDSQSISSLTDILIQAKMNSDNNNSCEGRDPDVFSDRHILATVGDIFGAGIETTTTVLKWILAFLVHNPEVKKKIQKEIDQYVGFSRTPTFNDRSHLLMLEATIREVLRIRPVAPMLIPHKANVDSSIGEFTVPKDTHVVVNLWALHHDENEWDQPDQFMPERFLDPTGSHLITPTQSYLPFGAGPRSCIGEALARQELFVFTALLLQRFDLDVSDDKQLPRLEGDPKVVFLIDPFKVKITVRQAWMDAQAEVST
How it was run: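 Rat testicular microsomes (150–160 μg) or yeast microsomes expressing human CYP17 (1.7 pmol) react with ³H-17α-hydroxypregnenolone (1 μCi/reaction) and 325 μM NADPH in potassium phosphate buffer, pH 7.4. Compound is pre-incubated with substrate for 15 min, then the reaction runs 60 min at 37 °C. After chloroform extraction and charcoal treatment, aqueous radioactivity is measured by scintillation counting.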

[2] = molecular target: T2, human CYP17 in H295R adrenocortical carcinoma cells (Homo sapiens, UniProt P05093); experiment: Cell-based human CYP17 inhibition assay, H295R cells; conditions: 16 hours, read-out: CYP17 (human H295R adrenal cells)
T2 construct: H295R Adrenocortical carcinoma cells [NCI-H295A, ATCC Number CRL-2128, American Type Culture Collection; host or cells: H295R adrenocortical carcinoma cells
T2 sequence (P05093 1-508): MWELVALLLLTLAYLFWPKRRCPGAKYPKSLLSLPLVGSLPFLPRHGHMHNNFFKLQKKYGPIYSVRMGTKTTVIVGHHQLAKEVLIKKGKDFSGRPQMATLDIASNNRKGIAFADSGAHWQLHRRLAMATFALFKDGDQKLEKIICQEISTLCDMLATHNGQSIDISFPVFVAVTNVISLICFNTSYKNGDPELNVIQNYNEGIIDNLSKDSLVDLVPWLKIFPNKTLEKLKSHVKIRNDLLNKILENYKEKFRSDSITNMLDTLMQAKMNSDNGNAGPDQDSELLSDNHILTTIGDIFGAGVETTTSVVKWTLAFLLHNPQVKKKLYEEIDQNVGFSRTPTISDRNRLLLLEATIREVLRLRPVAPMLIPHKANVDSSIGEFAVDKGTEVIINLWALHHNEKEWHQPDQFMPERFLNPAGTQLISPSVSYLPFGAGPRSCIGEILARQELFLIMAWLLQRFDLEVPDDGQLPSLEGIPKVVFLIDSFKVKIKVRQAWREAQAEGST
How it was run: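 H295R cells or LNCaP cells stably transfected with full-length human CYP17A1 (30,000/well) incubated 16 h at 37 °C with ³H-17α-hydroxypregnenolone and compound (top 10 μM, 3-fold dilutions, up to 10 concentrations). Medium chloroform-extracted and charcoal-treated; aqueous-phase radioactivity counted by scintillation.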

SMILES	IC50 [1] [nM]	IC50 [2] [nM]
CC(O)(c1ccncc1)c1cc(-c2ccc(F)cc2)sn1 (centres unmarked) [Example 63, 1-(5-(4-fluorophenyl)isothiazol-3-yl)-1-(pyridin-4-yl)ethanol]	< 50	< 50
CC(O)(c1ccncc1)c1cnc(-c2cncnc2)s1 (centres unmarked) [Example 64, 1-(pyridin-4-yl)-1-(2-(pyrimidin-5-yl)thiazol-5-yl)ethanol]	< 50	201 to 10000
CC(N)(c1ccncc1)c1cnc(-c2ccc(F)cc2)s1 (centres unmarked) [Example 68, 1-(2-(4-Fluorophenyl)thiazol-5-yl)-1-(pyridin-4-yl)ethanamine]	< 50	50 to 200
CC(=O)NC(C)(c1ccncc1)c1cnc(-c2ccc(F)cc2)s1 (centres unmarked) [Example 69, N-(1-(2-(4-Fluorophenyl)thiazol-5-yl)-1-(pyridin-4-yl)ethyl)acetamide]	50 to 200	201 to 10000
